Experiment: Example 3: phase 3 trial, enavogliflozin 0.3 mg vs dapagliflozin 10 mg once a day for 24 weeks added to metformin and gemigliptin in patients with type 2 diabetes (same endpoints, rescue drug)
Type: in vivo, human
Protocol: 1) when Metformin (≥1,000 mg/Day) was Administered at a Constant Dose for at Least 8 Weeks Prior to Pre-Visit (Pre-Screening) • Metformin (≥1,000 mg/day) and gemigliptin (50 mg/day) were co-administered during the 8-week stabilization period. […] 4) when Metformin (≥1,000 mg/Day) and Gemigliptin (50 mg/Day) were Co-Administered at Constant Doses for at Least 8 Weeks Prior to Pre-Visit (Prescreening) • Without a separate stabilization period, Pre-visit (pre-screening) was Visit 1 (screening).
Subjects who met the inclusion/exclusion criteria continued to receive metformin and gemigliptin while receiving a placebo of the clinical trial drug in a single-blind (subject-blinded) state for a 2-week run-in period.
Here, the randomized subjects were stratified according to the administration therapy (co-administration with two or less agents (one or two agents) or three or more agents) of a conventional hypoglycemic agent (before washout of another hypoglycemic agent) within 24 weeks prior to obtaining written informed consent and by an HbA1c value (<8% or ≥8%) at Visit 1 (screening) measured in the central laboratory.
The randomized subjects were administered two tablets of the clinical trial drug corresponding to each administration group once a day, and then visited the institution at weeks 6, 12, 18, and 24 during the 24-week administration period to conduct efficacy and safety assessments. In addition, during the clinical trial period, they were instructed to exercise regularly and control their diet without changing their daily life patterns.
• 1) Change in HbA1c at week 24 after administration of clinical trial drug compared to Visit 2 (randomization)
• 1) Change in HbA1c at each time point of weeks 6, 12, and 18 after administration of clinical trial drug compared to Visit 2 (randomization) • 2) Change in FPG at each time point of weeks 6, 12, 18, and 24 after administration of clinical trial drug compared to Visit 2 (randomization) • 3) Proportion of subjects achieving HbA1c<7% at each time point of weeks 6, 12, 18, and 24 after administration of clinical trial drug • 4) Proportion of subjects achieving HbA1c<6.5% at each time point of weeks 6, 12, 18, and 24 after administration of clinical trial drug • 5) Proportion of subjects achieving therapeutic response (HbA1c change (HbA1c at Visit 2—HbA1c at each evaluation time point)>0.5% or HbA1c<7% at each evaluation time point compared to Visit 2 (randomization)) at each time point of weeks 6, 12, 18, and 24 after administration of clinical trial drug • 6) Proportion of subjects achieving therapeutic response (HbA1c change (HbA1c at Visit 2—HbA1c at each evaluation time point)>0.7% or HbA1c<7% at each evaluation time point compared to Visit 2 (randomization)) at each time point of weeks 6, 12, 18, and 24 after administration of clinical trial drug • 7) Proportion of subjects achieving therapeutic response (HbA1c change (HbA1c at Visit 2—HbA1c at each evaluation time point)>1% or HbA1c<7% at each evaluation time point compared to Visit 2 (randomization)) at each time point of weeks 6, 12, 18, and 24 after administration of clinical trial drug

[1] = week 18, per-protocol set, enavogliflozin 0.3 mg, dapagliflozin 10 mg
[2] = week 24, modified per-protocol set 1, enavogliflozin 0.3 mg vs dapagliflozin 10 mg
[3] = week 24, modified per-protocol set 1, enavogliflozin 0.3 mg, dapagliflozin 10 mg
[4] = week 24, modified per-protocol set 2

SMILES: OC[C@H]1O[C@@H](c2cc(Cc3ccc(C4CC4)cc3)c(Cl)c3c2CCO3)[C@H](O)[C@@H](O)[C@@H]1O [Enavogliflozin, (2S,3R,4R,5S,6R)-2-(7-chloro-6 (4-cyclopropylbenzyl)-2,3-dihydrobenzofuran-4-yl)-6-(hydroxymethyl)tetrahydro-2H-pyran-3,4,5-triol]
- HbA1c, Median [1]: 6.87%
- Subjects achieving HbA1c target of <6.5%, (%) [1]: 14.53%
- Subjects achieving HbA1c target of <7%, % [1]: 63.25%
- body weight, Median [1]: 65.40 kg
- Subjects achieving therapeutic glycemic response 2, % (week 18, per-protocol set, response 2 = HbA1c change >0.7% or HbA1c <7%, enavogliflozin 0.3 mg, dapagliflozin 10 mg): 77.78%
- Subjects achieving therapeutic glycemic response 3, % (week 18, per-protocol set, response 3 = HbA1c change >1% or HbA1c <7%, enavogliflozin 0.3 mg, dapagliflozin 10 mg): 74.36%
- FPG change from baseline, LS mean (SE) (week 24): −27.21(1.81) mg/dL
- HDL-C change from baseline, LS mean (SE) (week 24): 4.32(0.71) mg/dL
- HOMA-IR change from baseline, LS mean (SE) (week 24): −1.09(0.11)
- HOMA-β change from baseline, LS mean (SE) (week 24): 1.09(4.79)
- HbA1c change from baseline, LS mean (SE) (week 24): −0.92(0.05) % p
- HbA1c change from baseline, Mean (SD) (week 24): −0.93(0.70) % p
- LDL-C change from baseline, LS mean (SE) (week 24): 0.85(1.89) mg/dL
- UACR change from baseline, LS mean (SE) (week 24): −15.34 (3.93) g/kg
- UGCR change from baseline, LS mean (SE) (week 24): 60.22(2.31) mg/mg
- adiponectin change from baseline, LS mean (SE) (week 24): 1.42(0.35) μg/mL
- body weight change from baseline, LS mean (SE) (week 24): −3.15(0.23) kg
- diastolic blood pressure change from baseline, LS mean (SE) (week 24): −2.55(0.72) mmHg
- fasting C-peptide change from baseline, LS mean (SE) (week 24): −0.09(0.02) ng/ml
- leptin change from baseline, LS mean (SE) (week 24): −1.46(0.52) ng/mL
- systolic blood pressure change from baseline, LS mean (SE) (week 24): −4.49(0.96) mmHg
- total cholesterol change from baseline, LS mean (SE) (week 24): 4.48(2.07) mg/dL
- triglyceride change from baseline, LS mean (SE) (week 24): −8.22(4.01) mg/dL
- Odds ratio for administering the rescue drug (week 24, FAS, vs dapagliflozin): 0.36
- FPG change from baseline, LS mean difference (week 24, vs dapagliflozin): -3.49 mg/dL
- HDL-C change from baseline, LS mean difference (week 24, vs dapagliflozin): -0.08 mg/dL
- HOMA-IR change from baseline, LS mean difference (week 24, vs dapagliflozin): −0.16
- HOMA-β change from baseline, LS mean difference (week 24, vs dapagliflozin): −4.69
- HbA1c change from baseline, LS mean difference (week 24, vs dapagliflozin): −0.06 % p
- LDL-C change from baseline, LS mean difference (week 24, vs dapagliflozin): -2.27 mg/dL
- Odds ratio for achieving HbA1c<6.5% (week 24, vs dapagliflozin): 1.27
- Odds ratio for achieving HbA1c<7% (week 24, vs dapagliflozin): 1.17
- Odds ratio, therapeutic response (HbA1c change >0.5% or HbA1c<7%) (week 24, vs dapagliflozin): 1.15
- Odds ratio, therapeutic response (HbA1c change >0.7% or HbA1c<7%) (week 24, vs dapagliflozin): 0.98
- Odds ratio, therapeutic response (HbA1c change >1% or HbA1c<7%) (week 24, vs dapagliflozin): 1.22
- UACR change from baseline, LS mean difference (week 24, vs dapagliflozin): 0.79 g/kg
- UGCR change from baseline, LS mean difference (week 24, vs dapagliflozin): 16.71 mg/mg
- adiponectin change from baseline, LS mean difference (week 24, vs dapagliflozin): 0.49 µg/mL
- body weight change from baseline, LS mean difference (week 24, vs dapagliflozin): -0.15 kg
- diastolic blood pressure change from baseline, LS mean difference (week 24, vs dapagliflozin): −0.66 mmHg
- fasting C-peptide change from baseline, LS mean difference (week 24, vs dapagliflozin): -0.01 ng/mL
- leptin change from baseline, LS mean difference (week 24, vs dapagliflozin): -0.89 ng/mL
- systolic blood pressure change from baseline, LS mean difference (week 24, vs dapagliflozin): −0.22 mmHg
- total cholesterol change from baseline, LS mean difference (week 24, vs dapagliflozin): -1.09 mg/dL
- triglyceride change from baseline, LS mean difference (week 24, vs dapagliflozin): 0.56 mg/dL
- Change from baseline in HDL-C, ANCOVA LS mean difference [2]: -0.08 mg/dL
- Change from baseline in LDL-C, ANCOVA LS mean difference [2]: -2.27 mg/dL
- Change from baseline in total cholesterol, ANCOVA LS mean difference [2]: -1.09 mg/dL
- Change from baseline in triglycerides, ANCOVA LS mean difference [2]: 0.56 mg/dL
- Change from baseline in HDL-C, ANCOVA LS mean [3]: 4.32 mg/dL
- Change from baseline in HDL-C, Mean [3]: 4.53 mg/dL
- Change from baseline in HDL-C, Median [3]: 4.00 mg/dL
- Change from baseline in LDL-C, ANCOVA LS mean [3]: 0.85 mg/dL
- Change from baseline in LDL-C, Mean [3]: 1.75 mg/dL
- Change from baseline in LDL-C, Median [3]: 0.50 mg/dL
- Change from baseline in total cholesterol, ANCOVA LS mean [3]: 4.48 mg/dL
- Change from baseline in total cholesterol, Mean [3]: 5.59 mg/dL
- Change from baseline in total cholesterol, Median [3]: 5.50 mg/dL
- Change from baseline in triglycerides, ANCOVA LS mean [3]: -8.22 mg/dL
- Change from baseline in triglycerides, Mean [3]: -6.05 mg/dL
- Change from baseline in triglycerides, Median [3]: -1.00 mg/dL
- Fasting HDL-C, Mean [3]: 50.58 mg/dL
- Fasting HDL-C, Median [3]: 48.50 mg/dL
- Fasting LDL-C, Mean [3]: 73.15 mg/dL
- Fasting LDL-C, Median [3]: 70.50 mg/dL
- Fasting total cholesterol, Mean [3]: 140.06 mg/dL
- Fasting triglycerides, Mean [3]: 113.01 mg/dL
- Fasting triglycerides, Median [3]: 101.00 mg/dL
- fasting Total cholesterol, Median [3]: 134.00 mg/dL
- Change from baseline in diastolic blood pressure, ANCOVA LS mean [4]: −2.55 mmHg
- Change from baseline in diastolic blood pressure, LS mean difference (enavogliflozin − dapagliflozin) [4]: −0.66 mmHg
- Change from baseline in diastolic blood pressure, Mean [4]: −3.19 mmHg

Source: US20260130933A1, “PHARMACEUTICAL COMPOSITION FOR PREVENTION OR TREATMENT OF NEPHROPATHY AND/OR DIABETES MELLITUS, COMPRISING ENAVOGLIFLOZIN” (DAEWOONG PHARMACEUTICAL CO., LTD., priority 2022, published 2026)
